Measured values reported in patent US8680150B2, “Small molecule hematopoietic growth factor mimetic compounds that activate hematopoietic growth factor receptors” (Ligand Pharmaceuticals, Inc., priority 2009, dated 2014).

Tested on: UT7/EPO Cell line
Experiment: Cell proliferation assay in UT7/EPO cell line (ViaLight Plus)
Type: cell-based, human
Details: compound at 10 uM, efficacy relative to EPO (100%), UT7/EPO cells expressing endogenous EPO receptor, starved of EPO overnight, 72 hours at 37° C.
Method: The primary testing for the exemplified compounds was performed in UT7/EPO Cell line. UT7/EPO is human leukemia cell line, obtained from Dr. Norio Komatsu (Blood, Vol 82 (2), pp 456-464, 1993). These cells express endogenous EPO receptor and are dependant upon EPO for growth and proliferation. Briefly, the cells were starved of EPO overnight and plated in 96 or 384 well plates. The compounds were added to the cells at 10 uM concentration. The plates were then incubated at 37° C. for 72 hours. The proliferative effect of the compounds was measured by a commercially available kit from Lonza (ViaLight Plus).

Row | SMILES | Activity (%) | Activity (%) (10 µM)
1 | CC1=NN(c2ccc3ccccc3n2)C(=O)/C1=N\Nc1ccc(O)cc1 [Compound 108, 4-(4-Hydroxyphenyl)hydrazono-1-(2-quinolino)-3-methyl-5-pyrazolone] | 2.4% | 
2 | COc1ccc2c(c1)cc(C(=O)N/N=C/c1ccc(O)cc1)n2C [Compound 121, (1-Methyl-5-methoxyindole-2-)carboxyl(4-hydroxybenzylidene)hydrazide] | 12% | 
3 | O=C(N/N=C/c1ccccc1O)c1ccc(N2CCCC2=O)cc1 [Compound 123, 4-(2-Oxopyrrolidino-1-)benz(2-hydroxybenzylidene)hydrazide] | 5.1% | 
4 | Cc1cccc(C(=O)N/N=C/c2ccccc2O)c1 [Compound 124, 3-Methylbenz(2-hydroxybenzylidene)hydrazide] | 3.4% | 
5 | O=C(N/N=C/c1ccc2ccccc2c1)c1ccc(-c2ccccc2)cc1 [Compound 125, 4-Phenylbenz(2-naphthylidene)hydrazide] | 15% | 
6 | O=C(N/N=C/c1ccc2ccccc2c1)c1ccc(O)cc1 [Compound 126, 4-Hydroxybenz(2-naphthylidene)hydrazide] | 3.4% | 
7 | CN(C)c1ccc(/C=N/NC(=O)c2ccc(N3CCCC3=O)cc2)cc1 [Compound 127, 4-(2-Oxopyrrolidino-1-)benz(4-dimethylaminobenzylidene)hydrazide] | 6.8% | 
8 | COc1ccc(C(=O)N/N=C/c2cccc(OC)c2)cc1 [Compound 128, 4-Methoxybenz(3-methoxybenzylidene)hydrazide] | 5.6% | 
9 | COc1ccc(O)c(/C=N/NC(=O)c2ccc(N3CCCC3=O)cc2)c1 [Compound 129, 4-(2-Oxopyrrolidino-1-)benz(2-hydroxy-5-methoxybenzylidene)hydrazide] | 23% | 
10 | COc1cc(/C=N/NC(=O)c2ccc(N3CCCC3=O)cc2)ccc1O [Compound 130, 4-(2-Oxopyrrolidino-1-)benz(4-hydroxy-3-methoxybenzylidene)hydrazide] | 20% | 
11 | COc1ccc(/C=N/NC(=O)c2ccc(N3CCCC3=O)cc2)cc1 [Compound 131, 4-(2-Oxopyrrolidino-1-)benz(4-methoxybenzylidene)hydrazide] | 15% | 
12 | COc1ccc(/C=N/NC(=O)c2ccc(N3CCCC3=O)cc2)cc1OC [Compound 132, 4-(2-Oxopyrrolidino-1-)benz(3,4-dimethoxybenzylidene)hydrazide] | 8.7% | 
13 | COc1cccc(/C=N/NC(=O)c2ccc(OCc3ccc(Cl)cc3)cc2)c1 [Compound 133, 4-(4-Chlorobenzyloxy)benz(3-methoxybenzylidene)hydrazide] | 14% | 
14 | COc1cccc(/C=N/NC(=O)c2ccc(OCc3ccc(C)cc3)cc2)c1 [Compound 134, 4-(4-Methylbenzyloxy)benz(3-methoxybenzylidene)hydrazide] | 14% | 
15 | COc1cccc(/C=N/NC(=O)c2ccc(-n3cccc3)cc2)c1 [Compound 135, 4-(1-Pyrrolyl)benz(3-methoxybenzylidene)hydrazide] | 12% | 
16 | COc1cc(/C=N/NC(=O)c2ccc(OCc3ccc(C)cc3)cc2)cc(OC)c1OC [Compound 136, 4-(4-Methylbenzyloxy)benz(3,4,5-trimethoxybenzylidene)hydrazide] | 4.8% | 
17 | COc1ccc(/C=N/NC(=O)c2ccc(OCc3ccc(Cl)cc3)cc2)cc1OC [Compound 137, 4-(4-Chlorobenzyloxy)benz(3,4-dimethoxybenzylidene)hydrazide] | 12% | 
18 | COc1ccc(/C=N/NC(=O)c2ccc(OCc3ccc(C)cc3)cc2)cc1OC [Compound 138, 4-(4-Methylbenzyloxy)benz(3,4-dimethoxybenzylidene)hydrazide] | 18% | 
19 | COc1cccc(/C=N/NC(=O)c2ccc(N(C)C)cc2)c1 [Compound 139, 4-Dimethylaminobenz(3-methoxybenzylidene)hydrazide] |  | 7.8%
20 | COc1cccc(/C=N/NC(=O)c2ccc(-c3ccccc3)cc2)c1 [Compound 140, 4-Phenylbenz(3-methoxybenzylidene)hydrazide] | 14% | 
21 | COc1cc(/C=N/NC(=O)c2ccc(OCc3ccc(Cl)cc3)cc2)ccc1O [Compound 141, 4-(4-Chlorobenzyloxy)benz(4-hydroxy-3-methoxybenzylidene)hydrazide] | 17% | 
22 | COc1cccc(/C=N/NC(=O)c2ccc(OCc3ccc(Br)cc3)cc2)c1 [Compound 142, 4-(4-Bromobenzyloxy)benz(3-methoxybenzylidene)hydrazide] | 6.0% | 

Row | SMILES | Activity (%) | Activity (%) (10 µM)
23 | COc1cccc(/C=N/NC(=O)c2ccc(OCc3ccc(F)cc3)cc2)c1 [Compound 143, 4-(4-Fluorobenzyloxy)benz(3-methoxybenzylidene)hydrazide] | 14% | 
24 | COc1cc(/C=N/NC(=O)c2ccc(-c3ccccc3)cc2)ccc1O [Compound 144, 4-Phenylbenz(4-hydroxy-3-methoxybenzylidene)hydrazide] | 15% | 
25 | CCCCCCCCCCCCCCCCCC(=O)N/N=C/c1cc(OC)ccc1O [Compound 148, Octadecano(2-hydroxy-5-methoxybenzylidene)hydrazide] | 7.1% | 
26 | COc1cccc(/C=N/NC(=O)c2ccc(OCc3ccccc3)cc2)c1 [Compound 149, 4-Benzyloxybenz(3-methoxybenzylidene)hydrazide] | 9.7% | 
27 | COc1cccc(/C=N/NC(=O)c2ccc(-c3cnco3)cc2)c1 [Compound 150, 4-(4-Oxazolyl)benz(3-methoxybenzylidene)hydrazide] | 4.5% | 
28 | COc1ccc(O)c(/C=N/NC(=O)c2ccc(-c3ccccc3)cc2)c1 [Compound 151, 4-Phenylbenz(2-hydroxy-5-methoxybenzylidene)hydrazide] | 6.3% | 
29 | COc1ccc(COc2ccc(C(=O)N/N=C/c3cccc(OC)c3)cc2)cc1 [Compound 152, 4-(4-Methoxybenzyloxy)benz(3-methoxybenzylidene)hydrazide] | 6.9% | 
30 | COc1cccc(/C=N/NC(=O)c2ccc(OCc3cccc(Cl)c3)cc2)c1 [Compound 153, 4-(3-Chlorobenzyloxy)benz(3-methoxybenzylidene)hydrazide] | 5.3% | 
31 | COc1cccc(/C=N/NC(=O)c2ccc(OCc3ccc(C(F)(F)F)cc3)cc2)c1 [Compound 154, 4-(4-Trifluoromethylbenzyloxy)benz(3-methoxybenzylidene)hydrazide] | 6.7% | 
32 | COc1cccc(/C=N/NC(=O)c2ccc(OCc3cccc(OC)c3)cc2)c1 [Compound 155, 4-(3-Methoxybenzyloxy)benz(3-methoxybenzylidene)hydrazide] | 11% | 
33 | C=Cc1ccc(COc2ccc(C(=O)N/N=C/c3cccc(OC)c3)cc2)cc1 [Compound 156, 4-(4-Vinylbenzyloxy)benz(3-methoxybenzylidene)hydrazide] | 7.9% | 
34 | COc1cccc(/C=N/NC(=O)c2ccc(OCc3ccc4ccccc4c3)cc2)c1 [Compound 157, 4-(2-Naphthylmethoxy)benz(3-methoxybenzylidene)hydrazide] | 9.9% | 
35 | COc1cc(/C=N/NC(=O)c2ccc(-c3ccccc3)cc2)ccc1F [Compound 159, 4-Phenylbenz(4-fluoro-3-methoxybenzylidene)hydrazide] | 8.9% | 
36 | COc1cc(/C=N/NC(=O)c2ccc(-c3ccccc3)cc2)cc(OC)c1 [Compound 160, 4-Phenylbenz(3,5-dimethoxybenzylidene)hydrazide] | 6.1% | 
37 | COc1cccc(/C=N/NC(=O)c2ccc(-c3ccccc3F)cc2)c1 [Compound 161, 4-(2-Fluorophenyl)phenylbenz(3-methoxybenzylidene)hydrazide] | 12% | 
38 | O=C(N/N=C/c1ccc2[nH]ccc2c1)c1ccc(-c2ccccc2)cc1 [Compound 163, 4-Phenylbenz(5-indolidene)hydrazide] | 23% | 
39 | C=Cc1cccc(/C=N/NC(=O)c2ccc(-c3ccccc3)cc2)c1 [Compound 164, 4-Phenylbenz(3-vinylbenzylidene)hydrazide] | 11% | 
40 | CC(=O)c1cccc(/C=N/NC(=O)c2ccc(-c3ccccc3)cc2)c1 [Compound 165, 4-Phenylbenz(3-acetylbenzylidene)hydrazide] | 14% | 
41 | C=Cc1cccc(/C=N/NC(=O)c2ccc(N(C)C)cc2)c1 [Compound 167, 4-Dimethylaminobenz(3-vinylbenzylidene)hydrazide] | 11% | 
42 | COc1cccc(/C=N/NC(=O)c2ccc(N(C)C)cc2)c1 [Compound 168, 4-Dimethylaminobenz(3-methoxybenzylidene)hydrazide] |  | 11%
43 | CN(C)c1ccc(C(=O)N/N=C/c2cccc(/C=C/c3ccccc3)c2)cc1 [Compound 170, 4-Dimethylaminobenz(3-(2E-phenylethenyl)benzylidene)hydrazide] | 4.7% | 
44 | CN(C)c1ccc(C(=O)N/N=C/c2cccc(CO)c2)cc1 [Compound 171, 4-Dimethylaminobenz(3-hydroxymethylbenzylidene)hydrazide] | 16% | 
